{
  "source": "patent US9877921B2",
  "about": "(NOVA SOUTHEASTERN UNIVERSITY, priority 2011, dated 2018)",
  "experiment": "Discoloration (degradation) after nanoparticle processing by microfluidization",
  "assay_type": "physicochemical",
  "conditions": "after high energy fluidization",
  "experimental": "Nanoparticles were fabricated from epinephrine base or epinephrine bitartrate (Bit) using high energy fluidization (microfluidization) techniques. […] Particles sizes were measured before and after size reduction using a Mastersizer (Malvern) and/or a NiComp 370 Submicron Particle Sizer (NiComp). The particles were lyophilized (freeze-dried) using a bench top lyophilizer (ART Inc.).\nThe main problem was discoloration (a brown color formed) due to degradation.",
  "data": [
    {"smiles": "CNC[C@H](O)c1ccc(O)c(O)c1", "note": "[Epinephrine Bit, epinephrine bitartrate]", "values": [
      {"measurement": "Sample Color after Processing (discoloration indicating instability)", "value": "did not show any discoloration"}
    ]}
  ]
}
